US9732119B2, “Immunomodulators” (BRISTOL-MYERS SQUIBB COMPANY, priority 2014, dated 2017)
Positions of bridges follow the written chain, without caps; N, C: chain ends. Non-standard residues stand in square brackets, D forms with d. Residues, ends and D or L forms follow the SMILES beside them. Trp(1-CH2COOH) = N[C@@H](Cc1cn(CC(=O)O)c2ccccc12)C(=O)O; Phe(4-Cl) = N[C@@H](Cc1ccc(Cl)cc1)C(=O)O; Hyp = O=C(O)[C@@H]1C[C@@H](O)CN1; Aad = N[C@@H](CCCC(=O)O)C(=O)O; NMeNle = CCCC[C@H](NC)C(=O)O; Pip = O=C(O)[C@@H]1CCCCN1; Orn = NCCC[C@H](N)C(=O)O; Dab = NCC[C@H](N)C(=O)O; Dap = NC[C@H](N)C(=O)O

target: T1, PD-1-Ig binding to PD-L1-TVMV-His (PD-L1-His) (Homo sapiens, UniProt Q9NZQ7); assay: PD-1/PD-L1 Homogenous Time-Resolved Fluorescence (HTRF) binding assay; settings: PD-1-Ig (20 nM) / PD-L1-His (10 nM); numeric values
T1 construct: hPDL1(19-239)-TVMV-His; made in house; host or cells: HEK293T cells
T1 sequence (Q9NZQ7 with tags, fused parts or gaps): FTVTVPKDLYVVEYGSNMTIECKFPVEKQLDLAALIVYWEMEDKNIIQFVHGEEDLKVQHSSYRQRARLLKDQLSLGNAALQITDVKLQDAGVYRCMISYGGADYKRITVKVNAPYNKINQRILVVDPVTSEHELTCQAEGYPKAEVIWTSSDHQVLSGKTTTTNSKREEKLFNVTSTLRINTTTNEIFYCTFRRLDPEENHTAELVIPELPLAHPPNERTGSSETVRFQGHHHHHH
How it was run: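 HTRF competition: compound pre-incubated 15 min with PD-L1-His (10 nM final), then PD-1-Ig (20 nM final) added for 15 min in dPBS, 0.1% BSA, 0.05% Tween-20. Detection with Eu-cryptate anti-Ig (1 nM) and APC anti-His (20 nM) antibodies.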

Row | IC50 [nM] | Compound
1 | 8 | CCCC[C@H]1C(=O)N(C)[C@@H](CCCC)C(=O)N[C@@H](CC(C)C)C(=O)NCCC[C@H](N)C(=O)N[C@@H](Cc2ccc(Cl)cc2)C(=O)N2CCCC[C@H]2C(=O)N[C@@H](CC(N)=O)C(=O)N2CCC[C@H]2C(=O)N[C@@H](CN)C(=O)N[C@@H](CC(C)C)C(=O)N2C[C@H](O)C[C@H]2C(=O)N[C@@H](Cc2c[nH]c3ccccc23)C(=O)N[C@@H](CCN)C(=O)N[C@@H](Cc2cn(CC(=O)O)c3ccccc23)C(=O)N1C [Example 10545] (H-[Orn][Phe(4-Cl)][Pip]NP[Dap]L[Hyp]W[Dab][Trp(1-CH2COOH)][NMeNle][NMeNle]L; lactam 1-C)

same assay, conditions: PD-1-Ig (20 nM) / PD-L1-His (10 nM); range classes

Row | Compound | IC50 [nM]
2 | CCCC[C@H]1C(=O)N(C)[C@@H](CCCC)C(=O)N[C@@H](CCC(=O)O)C(=O)N[C@H](C(=O)NCC(N)=O)CNCC(=O)N[C@@H](Cc2ccc(F)cc2)C(=O)N(C)[C@@H](C)C(=O)N[C@@H](CC(N)=O)C(=O)N2CCC[C@H]2C(=O)N[C@@H](CCC(N)=O)C(=O)N[C@@H](CC(C)C)C(=O)N2C[C@H](O)C[C@H]2C(=O)N[C@@H](Cc2c[nH]c3ccccc23)C(=O)N[C@@H](CC(N)=O)C(=O)N[C@@H](Cc2cn(CC(=O)O)c3ccccc23)C(=O)N1C [Example 9022] | 10 to 99
3 | CCCC[C@H]1C(=O)N(C)[C@@H](CCCC)C(=O)N[C@@H](CC(C)C)C(=O)N[C@H](C(=O)NCC(N)=O)CCCNCC(=O)N[C@@H](Cc2ccc(O)cc2)C(=O)N(C)[C@@H](C)C(=O)N[C@@H](CC(N)=O)C(=O)N2CCC[C@H]2C(=O)N[C@@H](Cc2cnc[nH]2)C(=O)N[C@@H](CC(C)C)C(=O)N2C[C@H](O)C[C@H]2C(=O)N[C@@H](Cc2c[nH]c3ccccc23)C(=O)NCC(=O)N[C@@H](Cc2c[nH]c3ccccc23)C(=O)N1C [Example 10028] | 100 to 10000
4 | CCCC[C@H]1C(=O)N(C)[C@@H](CCCC)C(=O)N[C@@H](CC(C)C)C(=O)N[C@H](C(N)=O)CCCC(=O)N[C@@H](Cc2ccc(Cl)cc2)C(=O)N2CCCC[C@H]2C(=O)N[C@@H](CC(=O)O)C(=O)N2CCC[C@H]2C(=O)N[C@@H](CN)C(=O)N[C@@H](CC(C)C)C(=O)N2C[C@H](O)C[C@H]2C(=O)N[C@@H](Cc2c[nH]c3ccccc23)C(=O)N[C@@H](CCN)C(=O)N[C@@H](Cc2cn(CC(=O)O)c3ccccc23)C(=O)N1C [Example 10556] ([Phe(4-Cl)][Pip]DP[Dap]L[Hyp]W[Dab][Trp(1-CH2COOH)][NMeNle][NMeNle]L[Aad]-NH2; lactam N-14) | 1 to 9.9

More lines, now with the values ahead:

Row | IC50 [nM] | Compound
5 | 1 to 9.9 | CCCC[C@H]1C(=O)N(C)[C@@H](CCCC)C(=O)N[C@@H](CCC(=O)O)C(=O)N[C@H](C(N)=O)CCCC(=O)N[C@@H](Cc2ccc(Cl)cc2)C(=O)N2CCCC[C@H]2C(=O)N[C@@H](CC(N)=O)C(=O)N2CCC[C@H]2C(=O)N[C@@H](CN)C(=O)N[C@@H](CC(C)C)C(=O)N2C[C@H](O)C[C@H]2C(=O)N[C@@H](Cc2c[nH]c3ccccc23)C(=O)N[C@@H](CCN)C(=O)N[C@@H](Cc2cn(CC(=O)O)c3ccccc23)C(=O)N1C [Example 10557] ([Phe(4-Cl)][Pip]NP[Dap]L[Hyp]W[Dab][Trp(1-CH2COOH)][NMeNle][NMeNle]E[Aad]-NH2; lactam N-14)
6 | 1 to 9.9 | CCCC[C@H]1C(=O)N(C)[C@@H](CCCC)C(=O)N[C@@H](CC(C)C)C(=O)N[C@H](C(N)=O)CCCC(=O)N[C@@H](Cc2ccc(Cl)cc2)C(=O)N2CCCC[C@H]2C(=O)N[C@@H](CC(N)=O)C(=O)N2CCC[C@H]2C(=O)N[C@@H](CN)C(=O)N[C@@H](CC(C)C)C(=O)N2C[C@H](O)C[C@H]2C(=O)N[C@@H](Cc2c[nH]c3ccccc23)C(=O)N[C@@H](CCN)C(=O)N[C@@H](Cc2cn(CC(=O)O)c3ccccc23)C(=O)N1C [Example 10534] ([Phe(4-Cl)][Pip]NP[Dap]L[Hyp]W[Dab][Trp(1-CH2COOH)][NMeNle][NMeNle]L[Aad]-NH2; lactam N-14)
